# Tests used:
# Pf20S = Pf20S (Plasmodium falciparum, UniProt A0A5K1K7U1+Q8IJT1); test: Calculation of inhibition constants (inactivation kinetics), Pf20S; type: biochemical; conditions: Pf20S
# Procedure: (§1) The rate of AMC release was calculated in the presence of serial dilution of each inhibitor. The rate of product formation were calculated at 30 min intervals for 4 hours, and normalized to activity DMSO control to calculate inactivation curves. Kobs values for each inhibitor concentration were calculated from inactivation curves, and inhibition constants KI and kinact were calculated by non-linear regression of Kobs and inhibitor concentration using GraphPad Prism 6 software.
# c20S = molecular target: T1, c20S (Homo sapiens, UniProt P20618+P28074); test: Calculation of inhibition constants (inactivation kinetics), c20S; type: biochemical
# T1 construct: purchased Boston Biochem
# Procedure: as §1
# HepG2 cells = test: HepG2 cytotoxicity assay; type: cell-based; conditions: Homo sapiens
# Procedure: The liver-stage and HepG2 toxicity assays were performed as previously reported (35). Briefly, HepG2-A16-CD81EGFP, human hepatocarcinoma HepG2 cells stably transformed to express the tetraspanin CD81 receptor (36, 37) and thus susceptible to P. berghei infection, were cultured at 37° C. in 5% CO2 in DMEM (Life Technologies, Calif.) supplemented with 10% FBS, 0.29 mg/ml glutamine, 100 unit penicillin and 100 μg/ml streptomycin. For both the P. berghei-luciferase and HepG2 cytotoxicity assays, 3×10^3 of the HepG2-A16-CD81EGFP cells in 5 μl of assay medium (DMEM without Phenol Red (Life Technologies, Calif.), 5% FBS, and 5× Pen Strep Glutamine (Life Technologies, Calif.)) at concentration 6×10^5 cells/ml were seeded in 1536-well plates (Greiner BioOne white solid bottom custom GNF mold) 20-26 hours prior to the actual infection. 18 hours prior to infection, 50 nl of compound in DMSO (0.5% final DMSO concentration per well) were transferred with Acoustic Transfer System (ATS) (Biosero) into the assay plates. Atovaquone (12-point serial dilution starting at 10 μM) and Puromycin (12-point serial dilution starting at 10 μM) were used as positive controls for Pb. liver stage assay and HepG2 cytotoxicity respectively. 0.5% DMSO was used as negative control for the both assays.
# An. stephensi mosquitoes, infected with P. berghei-luciferase, were provided by the New York University Insectary. P. berghei-luciferase sporozoites were freshly dissected from the infected A. stephensi mosquito salivary glands, filtered twice through a 20 μm nylon net filter using Steriflip Vacuum-Driven Filtration System (Millipore), counted in a hemocytometer, and then adjusted to final concentration 200 sporozoites per μl in the assay media. […] The HepG2-A16-CD81EGFP cell designated for toxicity studies were left uninfected, with 5 ul of additional assay media added to each well to maintain equal concentrations of compounds with P. berghei-luciferase infected plates. After incubation at 37° C. for 48 hours the exoerythrocytic growth and HepG2-A16-CD81EGFP cell viability were quantified by a bioluminescence measurement.
# The HepG2 cytotoxicity was assessed by removing the media through an inverted spin of the plates at 150 g for 30 s and addition of 2 μL of CellTiterGlo reagent (Promega diluted 1:2 with deionized water) per well using the MicroFlo liquid handler (BioTek). Immediately after addition of the luminescence reagent, the plates were vortexed for 10 s and read with an EnVision Multilabel reader (PerkinElmer). IC50 values were obtained as above.
# P. falciparum Dd2 = P. falciparum Dd2 asexual blood stage SYBR Green I compound sensitivity assay; type: cell-based, Plasmodium falciparum; conditions: for IC50: Plasmodium falciparum, DD2, 72 h, asexual blood stage, 72 hour SYBR green assay; for Selectivity Index: P. falciparum activity versus HepG2 activity
# Procedure: P. falciparum Dd2 strain parasites were cultured under standard conditions (31), using RPMI media supplemented with 0.05 mg/ml gentamycin, 0.014 mg/mL hypoxanthine (prepared fresh), 38.4 mM HEPES, 0.2% Sodium Bicarbonate, 3.4 mM Sodium Hydroxide, 0.05% O+ Human Serum (Denatured at […] for 40 min and From Interstate Blood Bank, Memphis, Tenn.) and 0.0025% Albumax). Human O+ whole blood was obtained from TSRI blood bank (La Jolla, Calif.). Leukocyte-free erythrocytes are stored at 50% hematocrit in RPMI-1640 screening media (as above, but without O+ human serum and with 2× albumax concentration) at 4° C. for one to three weeks before experimental use. Cultures were monitored every one to two days via Giemsa-stained thin smears.
# (§2) Compound susceptibility was measured using the malaria SYBR Green I-based fluorescence assay (32). Asynchronous P. falciparum parasites (Dd2 strain) were cultured in standard conditions before being plated for the assays. Each compound was tested over 72 hours in technical duplicates on a twelve-point concentration curve prepared by three-fold dilution from 6.7 μM to 0.11 nM. At least three independent experiments were carried out for IC50 determination. Artemisinin and chloroquine were used as controls. IC50 values were obtained using normalized fluorescence intensity from SYBR green I and analyzed via non-linear variable slope four-parameter regression curve-fitting model in Prism 6 (GraphPad Software Inc).
# Dd2 parasites = test: Artemisinin synergy, 72 hour SYBR green assay with co-treatment; type: cell-based, Plasmodium falciparum; conditions: Plasmodium falciparum, DD2; wild-type parasites treated with ART alone
# Procedure: as §2
# Pf20S, sequence (A0A5K1K7U1 entry or part of it): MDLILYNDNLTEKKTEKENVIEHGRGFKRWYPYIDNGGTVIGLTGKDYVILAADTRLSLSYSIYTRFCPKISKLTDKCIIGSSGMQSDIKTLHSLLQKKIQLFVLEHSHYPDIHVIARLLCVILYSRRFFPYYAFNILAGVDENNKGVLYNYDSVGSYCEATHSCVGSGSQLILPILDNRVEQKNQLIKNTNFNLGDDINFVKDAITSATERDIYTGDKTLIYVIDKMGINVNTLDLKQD
# Pf20S, sequence (Q8IJT1 entry or part of it): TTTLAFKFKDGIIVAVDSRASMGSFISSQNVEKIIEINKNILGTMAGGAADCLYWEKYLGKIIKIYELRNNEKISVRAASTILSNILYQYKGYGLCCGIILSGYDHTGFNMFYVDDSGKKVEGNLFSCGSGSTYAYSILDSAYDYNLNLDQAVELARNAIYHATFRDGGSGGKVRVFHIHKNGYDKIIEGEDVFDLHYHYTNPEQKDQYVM
Compound,Ki (Pf20S) [nM],Ki (c20S; c20S) [nM],"loss in potency to c20S (c20S; kinact/Ki, analog 1 versus carmaphycin B) [fold]",IC50 (HepG2 cells) [nM],IC50 (P. falciparum Dd2) [nM],IC50 (Dd2 parasites) [nM],Selectivity Index (P. falciparum Dd2)
"CCCCCC(=O)N[C@H](C(=O)N[C@@H](CCCC)C(=O)N[C@@H](CC(C)C)C(=O)[C@@]1(C)CO1)C(C)C [Analog 1, (S)-2-((S)-2-hexanamido-3-methylbutanamido)-N—((S)-4-methyl-1-((R)-2-methyloxiran-2-yl)-1-oxopentan-2-yl)hexanamide]",2290,3740,3,134 ± 86.7,4.11 ± 0.077,,
"C[C@@H]1CC[C@H]2[C@@H](C)C(=O)O[C@@H]3O[C@@]4(C)CC[C@@H]1[C@]32OO4 [Artemisinin, artemisinin]",,,,,,19.7 to 23.3,
"CCCCCC(=O)NC(Cc1ccc(NC(=O)OC(C)(C)C)cc1)C(=O)N[C@@H](Cc1ccc(NC(=O)OC(C)(C)C)cc1)C(=O)N[C@@H](Cc1ccccc1)C(=O)[C@@]1(C)CO1 (stereo in doubt) [Analog 15, tert-butyl (4-((R)-3-(((S)-3-(4-((tert-butoxycarbonyl)amino)phenyl)-1-(((S)-1-((R)-2-methyloxiran-2-yl)-1-oxo-3-phenylpropan-2-yl)amino)-1-oxopropan-2-yl)amino)-2-hexanamido-3-oxopropyl)phenyl)carbamate]",,,,45.7 ± 15.7,12.2 ± 3.83,,3.75
"CCCCCC(=O)N[C@@H](Cc1ccc(NC(=O)OC(C)(C)C)cc1)C(=O)N[C@@H](CCCC)C(=O)N[C@@H](CC(C)C)C(=O)[C@@]1(C)CO1 [Analog 5, tert-butyl (4-((S)-2-hexanamido-3-(((S)-1-(((S)-4-methyl-1-((R)-2-methyloxiran-2-yl)-1-oxopentan-2-yl)amino)-1-oxohexan-2-yl)amino)-3-oxopropyl)phenyl)carbamate]",,,,80.2 ± 26.5,5.55 ± 0.23,,14.45

# From patent US11357817B2, “Immunoproteasome inhibitor” (The Regents of the University of California, priority 2017, dated 2022)
